Where two headings read alike, the source gives them in different places.
What was measured:
Podosphaera leucotricha = assay: Podosphaera test (apple)/protective; settings: apple plants, protective spray, application rate 100 g/ha, evaluation 10 days after inoculation
Experimental: Podosphaera Test (Apple)/Protective
After the spray coating has dried on, the plants are inoculated with an aqueous spore suspension of the apple mildew pathogen Podosphaera leucotricha. The plants are then placed in the greenhouse at about 23° C. and a relative atmospheric humidity of about 70%.
Evaluation is carried out 10 days after the inoculation.

Venturia inaequalis = assay: Venturia test (apple)/protective; settings: apple plants, protective spray, application rate 100 g/ha, evaluation 12 days after inoculation
Experimental: Venturia Test (Apple)/Protective
After the spray coating has dried on, the plants are inoculated with an aqueous conidia suspension of the apple scab pathogen Venturia inaequalis and then remain in an incubation cabin at about 20° C. and 100% relative atmospheric humidity for one day.
The plants are then placed in a greenhouse at about 21° C. and a relative atmospheric humidity of about 90%.
Evaluation is carried out 12 days after the inoculation.

**Q.** With `CSc1nc2nc(Cl)c(-c3c(F)cc(F)cc3F)c(N3CCC(C(F)(F)F)CC3)n2n1` [Example 1, 5-chloro-2-(methylsulphanyl)-7-[4-(trifluoromethyl)-1-piperidinyl]-6-(2,4,6-trifluorophenyl)-[1,2,4]triazolo[1,5-a]pyrimidine] as the compound, how does the chromatographic logP (logP (HPLC)) read?
**A.** 4.1

**Q.** With `C[C@H](Nc1c(-c2c(F)cc(F)cc2F)c(Cl)nc2nc(S(C)(=O)=O)nn12)C(F)(F)F` [Example 2a, 5-chloro-2-(methylsulphonyl)-N-[(1S)-2,2,2-trifluoro-1-methylethyl]-6-(2,4,6-tri-fluorophenyl)[1,2,4]triazolo[1,5-a]pyrimidin-7-amine] as the compound, how does the chromatographic logP (logP (HPLC); HPLC) read?
**A.** 2.94

**Q.** For `C[C@H](Nc1c(-c2c(F)cc(F)cc2F)c(Cl)nc2nc([S+](C)[O-])nn12)C(F)(F)F` (stereo partly drawn) [Example 2b, 5-chloro-2-(methylsulphinyl)-N-[(1S)-2,2,2-trifluoro-1-methylethyl]-6-(2,4,6-trifluorophenyl)[1,2,4]triazolo[1,5-a]pyrimidin-7-amine], which chromatographic logP (logP (HPLC); HPLC) is on record?
**A.** 2.5

**Q.** Which chromatographic logP (logP (HPLC)) does the source give for `CSc1nc2nc(Cl)c(-c3c(F)cc(F)cc3F)c(Cl)n2n1` [Example 568, 5,7-dichloro-2-(methylsulphanyl)-6-(2,4,6-trifluorophenyl)-[1,2,4]triazolo[1,5-a]pyrimidine] here?
**A.** 3.43

**Q.** For `CSc1nc2nc(Cl)c(-c3c(Cl)cccc3Cl)c(Cl)n2n1` [Example 572], which chromatographic logP (logP (HPLC)) is on record?
**A.** 3.86

**Q.** With `CSc1nc2nc(O)c(-c3c(F)cc(F)cc3F)c(O)n2n1` [Example 585, 2-methylsulphanyl-6-(2,4,6-trifluoro-phenyl)-[1,2,4]triazolo[1,5-a]pyrimidine-5,7-diol] as the compound, how does the chromatographic logP (logP (HPLC)) read?
**A.** 0.47

**Q.** Which chromatographic logP (logP (HPLC); HPLC (gradient method)) does the source give for `CS(=O)(=O)c1nc2nc(Cl)c(-c3c(Cl)cccc3Cl)c(NC3CCCC3)n2n1` [compound 6] here?
**A.** 3.35

**Q.** For `CSc1nc2nc(Cl)c(-c3c(Cl)cccc3Cl)c(N[C@@H](C)C(F)(F)F)n2n1` [compound 8], which chromatographic logP (logP (HPLC); HPLC (gradient method)) is on record?
**A.** 3.82

**Q.** For `CSc1nc2nc(Cl)c(-c3c(F)cc(F)cc3F)c(N[C@@H](C)C(F)(F)F)n2n1` [compound 9], which chromatographic logP (logP (HPLC); HPLC (gradient method)) is on record?
**A.** 3.58

**Q.** With `CSc1nc2nc(Cl)c(-c3c(Cl)cccc3Cl)c(N[C@@H](C)C(F)(F)F)n2n1` [drawing 57] as the compound, how does the Efficacy in % (Podosphaera leucotricha) read?
**A.** 100%

**Q.** For `CSc1nc2nc(Cl)c(-c3c(F)cc(F)cc3F)c(N[C@@H](C)C(F)(F)F)n2n1` [drawing 58], which Efficacy in % (Podosphaera leucotricha) is on record?
**A.** 94%

**Q.** Which Efficacy in % (Venturia inaequalis) does the source give for `CSc1nc2nc(Cl)c(-c3c(Cl)cccc3Cl)c(N[C@@H](C)C(F)(F)F)n2n1` [drawing 60] here?
**A.** 100%

**Q.** With `CSc1nc2nc(Cl)c(-c3c(F)cc(F)cc3F)c(N[C@@H](C)C(F)(F)F)n2n1` [drawing 61] as the compound, how does the Efficacy in % (Venturia inaequalis) read?
**A.** 100%

From patent US20040157863A1, “Triazolopyrimidines” (priority 2001, published 2004)
